According to article PMC9750872, “Ras-mutant cancers are sensitive to small molecule inhibition of V-type ATPases in mice” (Nature biotechnology, 2022):
pIC50, pKd: −log10 of the molar value. Entries after “also recorded” stand apart in the source; their conditions may differ.

Key:
[1] = system: V-ATPase-dependent proton transport in HEK293T cells; assay: Proton pumping assay, FITC-Dextran-loaded lysosomes; format: cell-based, human; conditions: 1 h treatment
From the text: Figure 4. […] (A) Model of the reversible assembly of V-ATPase. Cytosolic V1 subunits are depicted in blue and membrane Vo subunits in purple. Upon V-ATPase assembly, ATP is hydrolyzed to ADP accompanied by proton (H^+) pumping and luminal acidification (decrease in pH) (Created with BioRender). […] The amount of subunit B2 present in the membrane fraction indicates the amount of assembled V-ATPase. A representative Western blot is presented. […] Cells were mechanically lysed, and a fraction containing FITC-Dextran-loaded lysosomes was isolated by sedimentation centrifugation. Fluorescence was measured over time to assess pH-dependent quenching following addition of 1 mM magnesium-ATP (predetermined). […] Representative of 5 individual experiments with n = 3 for each is presented (mean ± SD) (D) Mammalian V-ATPase activity measured in the absence and presence of 1 μM 249C and 1 μM BafA1. Data shown are mean ± SD; n = 3. […]
4 × 10^6 HEK 293T cells were plated in 10-cm plates. […] Sample fluorescence was excited at 490 nm, and emission fluorescence at 520 nm was measured continuously in BioTek plate reader (Synergy) using Gen5 software (version 3.05). After initial fluorescence stabilization, 1 mM ATP and 2 mM MgCl2 were added to initiate ATPase activity and proton pumping into the lysosomes, which causes quenching of FITC in the lysosomal lumen. […]

468 human kinases = assay: KINOMEscan profiling; format: binding; conditions: 249C at 10,000 nM
From the text: (§1) The KINOMEscan™ Profiling Service consisting of 468 human kinases was used to assess 249C inhibitor activity to check for off-target effects as previously described.
(§2) Supplementary Fi g u re 12: Compound 249C assessed for off-target effects using the KIN OME scanTM screening platform. (A) Selectivity (S-score) for 249C wher e the sco re is a qu antitative measu re o f compound selectivity against human kinases. It is calculate b y dividing the number of k inases that compounds bi nd to b y the total number of distinct kinases tested, excluding mutant variants (S = number of hits / number of assa ys). 1 hit out of >400 kinases is reported for test compound (249C) = 0.002. S(35) = number of non- mutant kinases with % ctrl <35/number of non- mutant kinases; (B) Kinome interaction map for 249C at 10,000 nM. Each red dot indicates a kinase found to bind, where larger dots indicate higher affinit y interactions.
(§3) 1 Tyrosine Kinase (TK) out of >400 kinases ( created in TREEspotTM ) with low affinity. This is calculated using
(§4) Dissociation constants (Kds) were determined using 249C at 30,000 nM, Hill slopes were set to - 1 and curves were fitted using a non- linear least square fit with the […]
(§5) (1 picture or pasted object on this page, not shown here)

[2] = target: T1, mammalian V-ATPase purified from pig kidneys (Sus scrofa, UniProt Q9TVC1); assay: Biochemical V-ATPase (ATP hydrolysis) assay; conditions: concentrations as low as 1 μM
T1 construct: the entire V-ATPase complex (800 kDa) was purified as described previously from porcine kidneys; from tissue; host or cells: porcine kidney
Protocol: V-ATPase was purified as described previously from yeast[82] using the detergent dodecylmaltoside and porcine kidney[83] using the detergent glycol-diosgenin. ATPase assays with purified V-ATPase were performed as described previously. 249C (mammalian: 0.1, 1, 10, 100 μM and yeast: 5, 10 and 100 μM) or BafA1 (1 μM) were added to the reaction and compared with a negative control to which only DMSO was added. Enzyme-coupled ATPase biochemical activity assays were performed in a 96-well plate as described previously.

DDR1 = DDR1 (Homo sapiens, UniProt Q08345); assay: KINOMEscan Kd determination; format: binding; conditions: 11-point serial dilution, top 30,000 nM
From the text: as §1, §2, §3, §4, §5

DDR2 = DDR2 (Homo sapiens, UniProt Q16832); assay: KINOMEscan Kd determination; format: binding; conditions: 11-point serial dilution, top 30,000 nM
From the text: as §1, §2, §3, §4, §5

MEFs KRAS Q61L = assay: Cell proliferation of Ras-less MEFs expressing human KRAS/BRAF; conditions: Mus musculus
Protocol: Logarithmically growing cells were plated in antibiotic-free medium supplemented with 2% fetal bovine serum at a density of 5,000 cells per well. The next day, cells were treated in triplicates with increasing doses of in-house small molecule inhibitor drugs and a DMSO vehicle control for 3 days and subsequently assessed for cell viability by measurement of ATP with CellTiter-Glo Luminescent Cell Viability Assay (Promega). Signal intensity was read on a Glomax™ 96 Microplate Luminometer (Promega) with GLOMAX software (version 1.9.3) and percent cell survival was calculated based on the reading of vehicle control cells set as 100% using Excel (2012) and GraphPad Prism (version 6)Each compound was tested a minimum of 2 times with n = 3. All cell proliferation assays (cancer cell lines or MEFs) were done in a similar way.

Chain of DDR2 (Q16832 22-855): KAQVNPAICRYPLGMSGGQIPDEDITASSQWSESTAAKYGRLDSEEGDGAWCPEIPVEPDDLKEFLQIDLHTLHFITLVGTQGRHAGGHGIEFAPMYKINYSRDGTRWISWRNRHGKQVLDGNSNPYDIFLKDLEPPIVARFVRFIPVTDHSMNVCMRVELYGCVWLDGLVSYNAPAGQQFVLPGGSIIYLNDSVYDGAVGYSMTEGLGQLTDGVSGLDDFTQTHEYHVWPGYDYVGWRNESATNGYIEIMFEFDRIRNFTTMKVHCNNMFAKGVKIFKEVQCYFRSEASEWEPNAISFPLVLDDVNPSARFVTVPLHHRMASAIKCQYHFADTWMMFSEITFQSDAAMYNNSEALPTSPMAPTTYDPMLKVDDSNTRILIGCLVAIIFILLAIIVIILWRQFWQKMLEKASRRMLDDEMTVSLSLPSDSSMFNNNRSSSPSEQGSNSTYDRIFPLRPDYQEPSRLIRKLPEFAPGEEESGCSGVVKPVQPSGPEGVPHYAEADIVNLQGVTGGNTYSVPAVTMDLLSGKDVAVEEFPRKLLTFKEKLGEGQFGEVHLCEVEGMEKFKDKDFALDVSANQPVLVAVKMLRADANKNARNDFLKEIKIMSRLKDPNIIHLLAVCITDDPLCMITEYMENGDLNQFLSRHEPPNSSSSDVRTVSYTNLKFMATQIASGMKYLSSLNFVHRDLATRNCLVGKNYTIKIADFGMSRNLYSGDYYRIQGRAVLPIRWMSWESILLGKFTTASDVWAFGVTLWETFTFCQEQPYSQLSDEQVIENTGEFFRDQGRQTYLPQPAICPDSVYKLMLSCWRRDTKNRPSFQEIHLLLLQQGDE
Chain of DDR1 (Q08345 19-913): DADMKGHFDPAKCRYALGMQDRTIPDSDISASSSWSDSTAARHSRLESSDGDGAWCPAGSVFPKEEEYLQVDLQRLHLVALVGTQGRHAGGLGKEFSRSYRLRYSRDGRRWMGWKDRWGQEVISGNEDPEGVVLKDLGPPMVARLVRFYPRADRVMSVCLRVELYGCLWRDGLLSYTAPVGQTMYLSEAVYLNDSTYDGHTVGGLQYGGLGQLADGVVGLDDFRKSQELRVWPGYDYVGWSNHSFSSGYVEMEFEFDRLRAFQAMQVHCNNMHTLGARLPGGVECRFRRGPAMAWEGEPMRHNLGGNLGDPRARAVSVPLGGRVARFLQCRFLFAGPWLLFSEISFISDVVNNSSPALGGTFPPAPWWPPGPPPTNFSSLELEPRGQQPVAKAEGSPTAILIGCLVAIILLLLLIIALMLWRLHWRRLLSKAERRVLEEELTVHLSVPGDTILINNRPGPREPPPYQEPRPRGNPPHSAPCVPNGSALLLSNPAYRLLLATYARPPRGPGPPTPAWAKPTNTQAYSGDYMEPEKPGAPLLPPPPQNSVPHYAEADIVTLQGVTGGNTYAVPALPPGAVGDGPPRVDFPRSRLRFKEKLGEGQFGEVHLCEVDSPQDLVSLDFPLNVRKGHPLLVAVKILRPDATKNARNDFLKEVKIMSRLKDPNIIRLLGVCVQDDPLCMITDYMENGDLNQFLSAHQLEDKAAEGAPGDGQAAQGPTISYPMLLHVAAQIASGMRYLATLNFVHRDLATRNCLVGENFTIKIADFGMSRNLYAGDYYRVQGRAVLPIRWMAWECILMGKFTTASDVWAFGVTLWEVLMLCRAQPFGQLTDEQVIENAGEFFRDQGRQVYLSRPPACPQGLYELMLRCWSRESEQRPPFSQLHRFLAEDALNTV
T1 sequence (Q9TVC1 whole entry): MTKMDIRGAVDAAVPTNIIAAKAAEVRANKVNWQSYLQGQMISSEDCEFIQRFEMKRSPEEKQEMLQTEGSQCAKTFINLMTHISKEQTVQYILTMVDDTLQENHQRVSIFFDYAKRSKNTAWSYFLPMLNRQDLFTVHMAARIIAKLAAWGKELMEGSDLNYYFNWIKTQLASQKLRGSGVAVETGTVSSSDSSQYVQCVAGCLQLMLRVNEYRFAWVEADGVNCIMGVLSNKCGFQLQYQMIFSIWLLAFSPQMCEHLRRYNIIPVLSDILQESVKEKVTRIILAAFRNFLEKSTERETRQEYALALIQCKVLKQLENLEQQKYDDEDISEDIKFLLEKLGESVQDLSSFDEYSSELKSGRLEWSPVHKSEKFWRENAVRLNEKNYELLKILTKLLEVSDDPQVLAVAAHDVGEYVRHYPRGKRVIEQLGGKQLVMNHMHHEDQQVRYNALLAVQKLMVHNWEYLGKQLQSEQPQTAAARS
T1 sequence (Q29048 whole entry partner): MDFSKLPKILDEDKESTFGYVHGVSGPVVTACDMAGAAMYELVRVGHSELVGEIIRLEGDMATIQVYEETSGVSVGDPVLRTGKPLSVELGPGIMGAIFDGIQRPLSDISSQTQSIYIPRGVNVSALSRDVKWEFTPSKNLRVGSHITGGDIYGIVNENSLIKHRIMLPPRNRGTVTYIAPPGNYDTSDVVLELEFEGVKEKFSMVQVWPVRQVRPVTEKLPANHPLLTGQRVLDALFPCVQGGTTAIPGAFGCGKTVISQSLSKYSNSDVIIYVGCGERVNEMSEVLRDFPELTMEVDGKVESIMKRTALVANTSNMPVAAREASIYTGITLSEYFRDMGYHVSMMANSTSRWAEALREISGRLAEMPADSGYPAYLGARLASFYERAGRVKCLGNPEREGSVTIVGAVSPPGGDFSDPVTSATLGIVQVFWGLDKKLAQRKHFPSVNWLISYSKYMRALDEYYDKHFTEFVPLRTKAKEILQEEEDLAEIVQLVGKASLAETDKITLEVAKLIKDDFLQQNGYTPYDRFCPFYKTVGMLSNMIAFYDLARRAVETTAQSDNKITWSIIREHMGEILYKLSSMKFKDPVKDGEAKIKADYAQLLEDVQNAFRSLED

Q: Which “V-ATPase-dependent proton transport (ATP-dependent fluorescence quenching)” value [1] does the source give for `CN1CCOC(CNC(=O)C2(C)C(c3ccc(Cl)o3)C(c3ccc(F)cc3F)=NN2c2ccc(F)cc2F)C1` (stereo not drawn) [Compound 249C] here?
A: The value was “inhibited V-ATPase-dependent proton transport; also recorded: ATP-dependent fluorescence quenching was not observed”.

Q: What about the “number of kinases found to bind out of >400 kinases” value (468 human kinases) of the same compound?
A: The value was 1.

Q: And the “ATP hydrolysis of intact mammalian V-ATPase” value [2]?
A: The value was “blocked ATP hydrolysis”.

Q: And the pKd (DDR1)?
A: The pKd was 5.27.

Q: And the pKd (DDR2)?
A: Its pKd is 4.80.

Q: What about the pIC50 (MEFs KRAS Q61L) of the same compound?
A: The pIC50 was 6.51.
